# According to article PMC2662387 (Journal of medicinal chemistry, 2008):
# Key:
# Aqueous solubility = type: physicochemical
# D2 receptor = D2 receptor (Rattus norvegicus, UniProt P61169); assay: Hypothermia in rats; type: in vivo; conditions: for Induction of hypothermia: compound alone
# D3 receptor [1] = target: T1, D3 receptor (Rattus norvegicus, UniProt P19020); assay: D3 receptor binding assay, [3H]PD128907, rat brain; conditions: for Fold less potent than 6 at the D3 receptor: relative to compound 6
# T1 sequence (P19020 whole entry): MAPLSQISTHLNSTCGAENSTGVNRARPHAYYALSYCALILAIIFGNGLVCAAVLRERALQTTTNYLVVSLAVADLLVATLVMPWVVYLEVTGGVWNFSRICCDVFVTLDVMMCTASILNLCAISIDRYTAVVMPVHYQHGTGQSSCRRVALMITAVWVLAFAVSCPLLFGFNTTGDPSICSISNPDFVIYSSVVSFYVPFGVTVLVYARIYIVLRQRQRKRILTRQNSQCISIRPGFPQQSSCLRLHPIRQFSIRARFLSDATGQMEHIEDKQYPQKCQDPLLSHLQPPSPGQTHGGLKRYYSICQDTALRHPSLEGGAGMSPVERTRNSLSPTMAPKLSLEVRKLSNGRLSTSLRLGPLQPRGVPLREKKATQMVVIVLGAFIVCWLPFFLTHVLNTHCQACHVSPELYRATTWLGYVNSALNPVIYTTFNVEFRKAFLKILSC
# D3 receptor [2] = target: T1, D3 receptor; type: in vivo; conditions: rats
# Sequence of D2 receptor (P61169 whole entry): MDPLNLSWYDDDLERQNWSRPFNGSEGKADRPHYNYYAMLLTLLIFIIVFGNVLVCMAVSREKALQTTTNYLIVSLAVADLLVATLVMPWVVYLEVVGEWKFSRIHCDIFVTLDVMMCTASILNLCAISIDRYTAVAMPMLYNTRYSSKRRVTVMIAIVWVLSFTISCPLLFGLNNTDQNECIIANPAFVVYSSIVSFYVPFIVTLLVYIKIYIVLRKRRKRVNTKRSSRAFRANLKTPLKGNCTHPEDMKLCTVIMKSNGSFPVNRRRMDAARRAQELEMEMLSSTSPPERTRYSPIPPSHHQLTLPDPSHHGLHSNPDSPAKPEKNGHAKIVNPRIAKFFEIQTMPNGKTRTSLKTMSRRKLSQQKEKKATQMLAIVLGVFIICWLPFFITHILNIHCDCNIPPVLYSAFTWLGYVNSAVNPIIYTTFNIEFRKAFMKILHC
Aqueous solubility (in words) (Aqueous solubility),SMILES,Induction of hypothermia (D2 receptor),other results
good aqueous solubility,CCCN(CCCCNC(=O)c1ccc2ccccc2c1)[C@H]1CCc2nc(N)sc2C1 [Compound 5],hypothermia was induced by 5 at higher doses,–
–,CC(C)CCN(CC[C@H]1CC[C@H](NC(=O)c2ccc3ccccc3c2)CC1)[C@H]1CCc2nc(N)sc2C1 [Compound 8],–,Fold less potent than 6 at the D3 receptor (D3 receptor [1]): 5 times
poor aqueous solubility,"COc1ccc2c(c1)CC[C@@H]1CN(CC[C@H]3CC[C@H](NC(=O)c4ccc5ccccc5c4)CC3)CCN21 [Compound 4, reference compound]",–,"Selectivity D1-like/D3 (D3 receptor [1]; ratio of Ki values): >5000 fold; Selectivity D2-like/D3 (D3 receptor [1]; ratio of Ki values, high affinity D2 component where 2-site fit): >1000 fold"
good aqueous solubility,CCCN(CC[C@H]1CC[C@H](NC(=O)/C=C/c2ccccc2)CC1)[C@H]1CCc2nc(N)sc2C1 [Compound 12],failed to induce changes in body temperature over the initial hour of observation,Effect on compound 1-induced hypothermia (D2 receptor; pretreatment with 12): failed to alter the induction of hypothermia by 1
–,"CCCN[C@H]1CCc2nc(N)sc2C1 [Compound 1, pramipexole, reference compound]",induction of hypothermia occurring at higher doses,"Induction of yawning (D3 receptor [2]; compound alone, dose-response): increases in yawning were observed over low doses (0.01 to 0.1 mg/kg); In vivo functional profile at D3 and D2 receptors (D3 receptor [2]; concluded from yawning and hypothermia assays): preferential D3 agonist in vivo and a D2 agonist at higher doses"
–,Nc1nc2c(s1)C[C@@H](NCC[C@H]1CC[C@H](NC(=O)c3ccc4ccccc4c3)CC1)CC2 [Compound 10],–,Fold less potent than 6 at the D3 receptor (D3 receptor [1]): 19 times
good aqueous solubility,CCCN(CC[C@H]1CC[C@H](NC(=O)c2ccc3ccccc3c2)CC1)[C@H]1CCc2nc(N)sc2C1.Cl.Cl [Compound 6],failed to induce changes in body temperature over the initial hour of observation,–
